Experimental data from article PMC4389225, “Triaminopyrimidine is a fast-killing and long-acting antimalarial clinical candidate” (Nature Communications, 2015).
Several values for one entry are separate records, joined by “and”; a condition that tells them apart may be missing. Equal entries are not always repeated. Where two headings read alike, the source gives them in different places.

Legend:
[1] = tested on: Dd2 PI4K Cpd 1; test: [3H]-hypoxanthine incorporation assay, Dd2 PI4K Cpd 1 resistant; type: cell-based; conditions: Plasmodium falciparum
Protocol: (§1) Supplementary Table 3: Compound 9 and 12 retain their activity against Pf strains harbouring mutations to novel antimalarial agents in clinical development. Compound 9 and 12 were tested for their antiplasmodial activity against a panel of Pf strains known to harbour mutations conferring resistance to novel agents under clinical development. Parasite growth inhibition is measured using the [3H]-hypoxanthine incorporation assay. IC50s are established for each strain (n ≥2) and compared to the IC50 of Dd2 (standard pan-resistant […]

[2] = tested on: PfATP4 Cpd 3; test: [3H]-hypoxanthine incorporation assay, PfATP4 Cpd 3 resistant; type: cell-based; conditions: Plasmodium falciparum
Protocol: as §1

[3] = Plasma protein binding, mouse
[4] = tested on: Dd2; test: [3H]-hypoxanthine incorporation assay, Dd2; type: cell-based, Plasmodium falciparum; conditions: Plasmodium falciparum, DD2
Protocol: 9 and 12 were tested for their antiplasmodial activity against a panel of Pf strains known to harbour mutations conferring resistance to novel agents under clinical development. Parasite growth inhibition is measured using the [3H]-hypoxanthine incorporation assay. IC50s are established for each strain (n ≥2) and compared to the IC50 of Dd2 (standard pan-resistant

[5] = Dog plasma PK, IV and oral; type: in vivo; conditions: male, Beagle; for clearance / AUC(0-inf) / AUC(0-t) / Cmax / MRT / half-life / Vd / bioavailability: dog; for half-life: read-out: t½ (converted); for Vd: read-out: Vss
Protocol: Pharmacokinetic studies to estimate the blood levels of compounds in dogs. PK in fasted, male Beagle dogs (n = 2 per dose) was studied after a single dose administered by intravenous infusion for 15 min (IV) or by an oral route (PO). Solution formulation containing 10% ethanol, 30% PEG 400, 60% saline was used for IV administration and a suspension in 0.5% w/v HPMC with 0.1% v/v Tween 80 was used for oral administration.
48 hours after an oral dose of 5 mg/kg. Blood samples were centrifuged and plasma samples were analyzed by LC/MS/MS. Dog PK profiles are shown in supplementary Fig. 11 and PK parameters are described in supplementary Table 9.

[6] = parameters: species or system human
Description: (§2) Supplementary Note 5: Prediction of human clearance for compound 12 by IVIVE.
(§3) Human clearance (CL) was predicted by in vitro-in vivo extrapolation (IVIVE) from the in vitro Clint in human hepatocytes6. In vitro Clint was scaled to in vivo Clint as follows:
(§4) Clint in vivo = Clint in vitro * scaling factors * fublood/fuinc
(§5) The liver weights used for scaling were 40, 32 and 24 g/kg body weight in rat, dog and human respectively. Hepatocellularity used for scaling was 163, 169 and 120 (X 106) cells/g liver in rat, dog and human respectively. Free fraction in blood was calculated as fuplasma /Blood:Plasma (BP) ratio. BP ratio and free fraction in the hepatocyte incubation mix, fuinc, were measured in vitro. Slope and intercept from the linear regression analysis of IVIVC for a large number of AstraZeneca compounds was applied for final correction in the scaled in vivo Clint. A well stirred model was used for CL prediction.
Where Qh is the liver blood flow. The values of Qh in rat, dog and human are 72, 55 and 20 mL.min-1kg-1 in rat, dog and human, respectively. In vitro parameters, observed in vivo CL and predicted CL are shown in supplementary Table 10.
Prediction of human CL and Vss by rat and dog allometry. Human CL for 12 was also predicted by simple, two species (rat and dog) allometry based on CL and Vss estimates from rat and dog IVPK. The coefficient and exponent from allometry were used for human CL prediction by the Fu corrected intercept method (FCIM)7. CL was predicted as […]
(§6) (also on this page, place not known: in vivo in vivo CLintQ CLintQCL Predicted predicted predicted h h + ×=)
(§7) (1 picture or pasted object on this page, not shown here)
Where ‘a’ is the coefficient obtained from simple allometric scaling and Rfup is the ratio of free fractions in plasma, fup in rat to fup in human. Vss in human was predicted by simple, rat and dog allometry (supplementary Table 11).
Prediction of human PK profile. The predicted human CL and Vss estimates could be used for predicting human PK with a one compartment distribution. However, rat and dog IVPK profiles indicated a two compartment distribution. Parameters for the two compartment distribution in human were predicted by Wajima transformation8 of rat and dog IVPK […]
CLd, Vt and Vc estimates, assuming similar Ka (0.3/h) and F (0.7) as observed in rats (supplementary Fig. 12 ).
Predicted human PK parameters are shown in supplementary Table 12. Human CL estimates predicted by the FCIM method and IVIVE (3.8 ml/min/kg) were identical. The […]
Human efficacy was predicted after treatment of 70 kg adult with a single 260 mg dose, assuming 2% parasitemia at the onset of treatment and assuming one compartment distribution of 12 in humans (supplementary Fig. 13). Similar efficacy was predicted if 12 was distributed in two compartments.

[7] = Blood-plasma ratio, rat; type: in vitro ADME
Description: as §2, §3, §4, §5
Where Qh is the liver blood flow. The values of Qh in rat, dog and human are 72, 55 and 20 mL.min-1kg-1 in rat, dog and human, respectively. In vitro parameters, observed in vivo CL and predicted CL are shown in supplementary Table 10. […]
as §6, §7

[8] = plasma, iv, 2.1 mg/kg, IV 2.1 mg kg-1, Dog 1
[9] = plasma, iv, 2.1 mg/kg, IV 2.1 mg kg-1, Dog 2
[10] = plasma, iv, 2.1 mg/kg, IV 2.1 mg kg-1, Mean
[11] = plasma, po, 5.1 mg/kg, Oral 5.1 mg kg-1, Dog 1
[12] = plasma, po, 5.1 mg/kg, Oral 5.1 mg kg-1, Dog 2
[13] = plasma, po, 5.1 mg/kg, Oral 5.1 mg kg-1, Mean
[14] = 260 mg / 70 kg, two compartment

**Q.** With Cc1nc(Nc2ncc(N3CCN(C)[C@H](C)C3)c(Nc3cc(C)n(C)n3)n2)cc(C2CC2)c1F [compound 12, (R)-N2-(4-cyclopropyl-5-fluoro-6-methylpyridin-2-yl)-N4-(1,5-dimethyl-1H-pyrazol-3-yl)-5-(3,4-dimethylpiperazin-1-yl)pyrimidine-2,4-diamine] as the molecule, how does the IC50 [1] read?
**A.** 7.1 nM

**Q.** What about the IC50 [2] of the same molecule?
**A.** 10 nM

**Q.** And the fraction unbound ([3]; Plasma protein binding (% free))?
**A.** 0.0055

**Q.** What about the fraction unbound ([3]; Plasma protein binding, Plasma fu, fraction unbound) of the same molecule?
**A.** 0.005

**Q.** And the IC50 [4]?
**A.** 3.5 nM

**Q.** And the clearance ([5]; blood, iv, 2.1 mg kg-1, Dog, read-out: Observed blood CL)?
**A.** 19 mL/min/kg

**Q.** What about the AUC(0-inf) [5, 8] of the same molecule?
**A.** 2.72 µM·h

**Q.** What about the AUC(0-t) [5, 8] of the same molecule?
**A.** 2.16 µM·h

**Q.** And the Cmax [5, 8]?
**A.** 641 nM

**Q.** What about the MRT [5, 8] of the same molecule?
**A.** 15.1 h

**Q.** What about the half-life [5, 8] of the same molecule?
**A.** 11 h

**Q.** What about the AUC(0-inf) [5, 9] of the same molecule?
**A.** 3.47 µM·h

**Q.** What about the AUC(0-t) [5, 9] of the same molecule?
**A.** 2.68 µM·h

**Q.** And the Cmax [5, 9]?
**A.** 515 nM

**Q.** And the MRT [5, 9]?
**A.** 15.9 h

**Q.** What about the half-life [5, 9] of the same molecule?
**A.** 11 h

**Q.** What about the AUC(0-inf) [5, 10] of the same molecule?
**A.** 3.1 µM·h

**Q.** What about the AUC(0-t) [5, 10] of the same molecule?
**A.** 2.42 µM·h

**Q.** And the Cmax [5, 10]?
**A.** 578 nM

**Q.** What about the MRT [5, 10] of the same molecule?
**A.** 15.5 h

**Q.** And the half-life [5, 10]?
**A.** 11 h

**Q.** And the clearance ([5]; plasma, iv, 2.1 mg/kg, plasma, IV 2.1 mg kg-1, Dog 1, read-out: CL)?
**A.** 27.5 mL/min/kg

**Q.** What about the Vd ([5]; plasma, iv, 2.1 mg/kg, plasma, IV 2.1 mg kg-1, Dog 1) of the same molecule?
**A.** 24.9 L/kg

**Q.** What about the clearance ([5]; plasma, iv, 2.1 mg/kg, plasma, IV 2.1 mg kg-1, Dog 2, read-out: CL) of the same molecule?
**A.** 21.3 mL/min/kg

**Q.** What about the Vd ([5]; plasma, iv, 2.1 mg/kg, plasma, IV 2.1 mg kg-1, Dog 2) of the same molecule?
**A.** 20.4 L/kg

**Q.** What about the clearance ([5]; plasma, iv, 2.1 mg/kg, plasma, IV 2.1 mg kg-1, Mean, read-out: CL) of the same molecule?
**A.** 24.4 mL/min/kg

**Q.** What about the Vd ([5]; plasma, iv, 2.1 mg/kg, plasma, IV 2.1 mg kg-1, Mean) of the same molecule?
**A.** 22.7 L/kg

**Q.** And the AUC(0-inf) [5, 11]?
**A.** 5.87 µM·h

**Q.** And the AUC(0-t) [5, 11]?
**A.** 5.27 µM·h

**Q.** And the Cmax [5, 11]?
**A.** 300 nM

**Q.** And the bioavailability [5, 11]?
**A.** 88.1%

**Q.** And the half-life [5, 11]?
**A.** 15.2 h

**Q.** What about the AUC(0-inf) [5, 12] of the same molecule?
**A.** 8.28 µM·h

**Q.** What about the AUC(0-t) [5, 12] of the same molecule?
**A.** 7.48 µM·h

**Q.** What about the Cmax [5, 12] of the same molecule?
**A.** 603 nM

**Q.** What about the bioavailability [5, 12] of the same molecule?
**A.** 96.4%

**Q.** What about the half-life [5, 12] of the same molecule?
**A.** 17 h

**Q.** What about the AUC(0-inf) [5, 13] of the same molecule?
**A.** 7.08 µM·h

**Q.** What about the AUC(0-t) [5, 13] of the same molecule?
**A.** 6.38 µM·h

**Q.** What about the Cmax [5, 13] of the same molecule?
**A.** 452 nM

**Q.** And the bioavailability [5, 13]?
**A.** 92.3%

**Q.** What about the half-life [5, 13] of the same molecule?
**A.** 16.1 h

**Q.** What about the Tmax ([5]; plasma, Oral 5.1 mg kg-1, Dog 1) of the same molecule?
**A.** 2 h

**Q.** And the “Predicted human CL” value [6, 14]?
**A.** 4.33 mL/min/kg

**Q.** And the “Predicted human CLd” value [6, 14]?
**A.** 20 mL/min/kg

**Q.** And the “Predicted human Vc” value [6, 14]?
**A.** 4.0 L/kg

**Q.** What about the “Predicted human Vt” value [6, 14] of the same molecule?
**A.** 7.3 L/kg

**Q.** And the “Human CL predicted by the FCIM method and IVIVE” value ([6]; Human)?
**A.** 3.8 mL/min/kg

**Q.** And the “Predicted blood CL” value ([6]; Human)?
**A.** 24 % LBF

**Q.** And the “Predicted blood CL” value ([6]; Human, IVIVE from hepatocyte Clint)?
**A.** 3.8 mL/min/kg

**Q.** And the “Predicted human F” value ([6]; assumed similar to rats)?
**A.** 0.7

**Q.** What about the “Predicted human Ka” value ([6]; assumed similar to rats) of the same molecule?
**A.** 0.3 h⁻¹

**Q.** What about the “B—predicted mean human plasma Cmax free” value ([6]; human, 260 mg dose) of the same molecule?
**A.** 8.7 nM

**Q.** What about the “predicted half-life in human” value ([6]; human, predicted) of the same molecule?
**A.** ~ 36 h and 36 h

**Q.** And the “Allometry parameter B (exponent), CL” value ([6]; rat and dog allometry)?
**A.** 1.08

**Q.** And the “Allometry parameter a (coefficient), CL” value ([6]; rat and dog allometry)?
**A.** 0.6

**Q.** What about the “B:P ratio” value [7] of the same molecule?
**A.** 1.65
